These results are taken from paper PMC9820316, “Novel Arylpiperazine Derivatives of Salicylamide with α1-Adrenolytic Properties Showed Antiarrhythmic and Hypotensive Properties in Rats” (International Journal of Molecular Sciences, 2022).

In one data set the target is α1-adrenergic receptors. The data set can be described thus: α1-adrenoceptor radioligand binding assay ([3H]-prazosin, rat cortex). Conditions: rat cortex tissue, mean ± SEM. On the procedure: (§1) The α1- and α2-adrenoceptor radioligand binding assays were performed on the rat cerebral cortex using previously described methods. […] The brains were homogenized using the ULTRA-TURRAX homogenizer in 10 mL of an ice-cold 50 mM Tris-HCl buffer (pH 7.6). The homogenates were centrifuged at 20,000× g for 20 min (0–4 °C). Subsequently, the cell pellet was resuspended in the Tris–HCl buffer and centrifuged again. Radioligand binding assays were carried out in plates (MultiScreen/Millipore). The final incubation mixture, with a volume of 300 μL, consisted of 240 μL of the tissue suspension, 30 μL of the radioligand solution, and 30 μL of the buffer containing 7–8 concentrations of the studied compounds. In order to measure the unspecific binding, 10 μM phentolamine (for [^3H]-prazosin) or 10 μM clonidine (for [^3H]-clonidine) were utilized. The incubation was completed by rapid filtration through Whatman GF/C filters using a vacuum manifold (Millipore). The filters were then washed twice with the assay buffer and placed in scintillation vials with a liquid scintillation cocktail. Radioactivity was measured in a WALLAC 1409 DSA liquid scintillation counter (Perkin Elmer, USA). All the assays were performed in duplicates, and the inhibitory constants (Ki) were calculated.

A further data set concerns the target α2-adrenergic receptors. The data set can be described thus: α2-adrenoceptor radioligand binding assay ([3H]-clonidine, rat cortex). The note with it: rat cortex tissue, mean ± SEM, n.a. = did not bind at 10^−5 M. The protocol:
as §1

The test system of data set [1] is calcium chloride-induced arrhythmia model in rats. The data set can be described thus: Prophylactic antiarrhythmic activity in calcium chloride-induced arrhythmia. In kind it is in vivo, rat. The note with it: 5 mg/kg iv 15 min before calcium chloride 140 mg/kg; number of animals with event. The protocol:
(§2) The animals were anesthetized with thiopental (75 mg/kg ip). Depending on the model, either adrenaline, aconitine, or calcium chloride was used as an arrhythmogen. Adrenaline and aconitine were administered iv at a dose of 20 µg/kg, whereas calcium chloride was administered at a dose of 140 mg/kg to induce heart rhythm disturbances. The tested compounds were injected iv 15 min before the arrhythmogen. Aspel ASCARD apparatus (standard II lead, with the tape speed 50 mm/s and voltage calibration 1 mV = 1 cm) was used for ECG measurements. […] The ED50 was calculated using the method of Litchfield and Wilcoxon.

The test system of data set [2] is adrenaline-induced arrhythmia model in rats. The data set can be described thus: Prophylactic antiarrhythmic activity in adrenaline-induced arrhythmia. It is filed as in vivo, rat. Conditions: for Blocks / Bradycardia / Extrasystoles / Mortality: number of animals with event. The protocol: as §2
The test system of data set [3] is aconitine-induced arrhythmia model in rats. The data set can be described thus: Prophylactic antiarrhythmic activity in aconitine-induced arrhythmia. It is filed as in vivo, rat. Conditions: 5 mg/kg iv 15 min before aconitine 20 μg/kg; number of animals with event. The protocol:
as §2

The subject of data set [4] is pressor response to methoxamine in rats. The data set can be described thus: Influence on blood vasopressor response to methoxamine in rats. In kind it is in vivo, rat. The note with it: 5 mg/kg iv, methoxamine 150 μg/kg before and 5 min after compound. On the procedure: The experiment was performed to establish the effect of the studied derivatives on the pressor response to methoxamine (150 µg/kg, iv), according to the methods described previously. Normotensive Wistar rats were anesthetized with thiopental (75 mg/kg ip). The right carotid artery was cannulated with a polyethylene tube filled with heparin solution using a Datamax apparatus (Columbus Instruments, Columbus, OH, USA). After a 15-min stabilization period, the pressor response to methoxamine before (control) and 5 min after the administration of the tested compounds was measured (Figure 4B). The tested compounds were administered at the lowest hypotensive dose.

The next data set deals with normal ECG in rats. The data set can be described thus: Effect on a normal electrocardiogram in rats. It is filed as in vivo, rat. The note with it: 5 mg/kg iv; for HR—heart rate / PQ interval / QRS complex / QTc (Bazzett's formula): mean ± SD; for PQ interval / QRS complex / QTc (Bazzett's formula): in ms (unit assumed). The protocol:
The procedure was performed to exclude the negative effects of the tested compounds on the normal ECG, according to the method described earlier. […] Firstly, animals were anesthetized with thiopental (75 mg/kg ip). […] The influence on PQ, QTc interval, QRS complex, and heart rate was evaluated. The Bazzett’s formula: QTc = QT/√RR was used to calculate QTc. All the studied compounds were administered at a dose of 5 mg/kg.

For data set [5], the system named is adrenaline-induced arrhythmia model in rats. The data set can be described thus: Therapeutic antiarrhythmic activity in adrenaline-induced arrhythmia. Conditions: 1 mg/kg iv immediately after adrenaline 20 µg/kg; number of animals with event.
Experimental: The experiments were carried out according to the method described by Szekeres and Papp [71]. The heart rhythm disturbances, such as extrasystoles, conduction blocks, and bradycardia, were induced by iv injection of adrenaline (20 µg/kg) to anesthetized rats (thiopental, 75 mg/kg, ip). […] The Aspel ASCARD apparatus (standard II lead, with a tape of speed 50 mm/s and voltage calibration of 1 mV = 1 cm) was used for the ECG measurements. The ECG was recorded during the first 2 min and in the 5th, 10th, and 15th min after the adrenaline injection (Figure 3B). The lack or decreased amount of extrasystoles, atrioventricular blocks, and bradycardia in the ECG recordings compared to the control group was the criterion of antiarrhythmic activity [72].
Automated ECG waveform analysis was evaluated as described earlier [55], using Eleven Maze software version 0.1 from Eleven Products Sp. z o.o. […] The software, under expert supervision, recognized and classified the heart rhythm irregularities. It also calculated PQ, QRS, QTc, and rate parameters.
Setting [6] is: 0.02 mg/kg iv 15 min before adrenaline 20 μg/kg.
Setting [7] is: 0.05 mg/kg iv 15 min before adrenaline 20 μg/kg.
Where [8] appears, read: 0.1 mg/kg iv 15 min before adrenaline 20 μg/kg.
Where [9] appears, read: 0 min (prior to administration).

`Cc1ccc(N(CC2=NCCN2)c2cccc(O)c2)cc1` [Phentolamine, phentolamine, reference compound]: on α1-adrenergic receptors, the “Adrenergic Receptors—pKi α1” value is recorded as 8.05 ± 0.01.
In the case of `Clc1cccc(Cl)c1N=C1NCCN1` [Clonidine, clonidine, reference compound], the “Adrenergic Receptors—pKi α2” value at α2-adrenergic receptors was determined as 8.30 ± 0.01.
On to `COc1ccccc1N1CCN(CCCCOc2ccccc2C(N)=O)CC1.Cl` [JJGW07, 2-{4-[4-(2-metoxyphenyl)piperazin-1-ylo]butoxy}benzamide hydrochloride], for which the Blocks is recorded as 6/6 in data set [1]; 6/6 in data set [2] (setting [6]); 4/6 in data set [2] (setting [7]); 3/6 in data set [2] (setting [8]); 6/6 in data set [3]; 2/5 in data set [5]. Also, the Bradycardia in data set [1] is given as 6/6; in data set [2] (setting [6]) it was 6/6; in data set [2] (setting [7]), 4/6; in data set [2] (setting [8]) it was 3/6; in data set [3], 6/6; in data set [5], 1/5. Besides, the Extrasystoles is on record as 6/6 in data set [1]; 5/6 in data set [2] (setting [6]); 5/6 in data set [2] (setting [7]); 4/6 in data set [2] (setting [8]); 6/6 in data set [3]. The Fibrillations in data set [1] and in data set [3] was 6/6 throughout. In addition, the Mortality is recorded as 6/6 in data set [1]; 3/6 in data set [2] (setting [6]); 0/6 in data set [2] (setting [7]); 0/6 in data set [2] (setting [8]); 6/6 in data set [3]; 0/5 in data set [5]. Further, in data set [2] (adrenaline-induced arrhythmia, prophylactic, carvedilol ref 62), the “ED50 value lower than that of carvedilol” value is reported as 9 fold. In addition, the ED50 in data set [2] (prophylactic, iv 15 min before adrenaline 20 μg/kg, confidence limits in brackets (Litchfield and Wilcoxon)) is given as 0.04 (0.01–0.15) mg/kg. The “attenuation of the methoxamine pressor response” value in data set [4] turned out to be 100%. In addition, the “Adrenergic Receptors—pKi α1” value at α1-adrenergic receptors was determined as 7.85 ± 0.01. In the data set with normal ECG in rats, the “effect on the heart rate during the ECG recording” value is “did not affect the heart rate”. Also, the “HR—heart rate” value in the data set with normal ECG in rats (setting [9]) came out at 328.7 ± 9.3; in the data set on normal ECG in rats (5 min) it was 341.2 ± 11.5; with normal ECG in rats (10 min), 333.2 ± 20.9; in the data set with normal ECG in rats (15 min), 336.3 ± 20.9. Besides, the PQ interval in the data set on normal ECG in rats (setting [9]) stood at 40.7 ± 2.1; in the data set with normal ECG in rats (5 min), 40.0 ± 2.2; with normal ECG in rats (10 min) it was 40.7 ± 3.7; with normal ECG in rats (15 min), 40.7 ± 1.6. Besides, the QRS complex with normal ECG in rats (setting [9]) amounted to 47.0 ± 6.3; with normal ECG in rats (5 min), 49.7 ± 7.9; with normal ECG in rats (10 min), 48.7 ± 7.2; with normal ECG in rats (15 min), 48.7 ± 9.2. For the same compound, the “QTc (Bazzett's formula)” value is recorded as 196.5 ± 8.0 in the data set on normal ECG in rats (setting [9]), 190.8 ± 4.2 in the data set with normal ECG in rats (5 min), 196.3 ± 9.5 in the data set with normal ECG in rats (10 min) and 192.4 ± 7.5 in the data set with normal ECG in rats (15 min).
